Assays:
[1] = Tested for inhibition of glucosamine-6P synthase; parameters: species or system Escherichia coli
[2] = Tested for inhibition of fructose-6P synthase

Ki [1] | Ki [2] | Structure (SMILES)
0.15 µM |  | NC(=O)/C=C/C(=O)NCC(N)C(=O)O (centres undefined)
0.22 µM |  | NC(CC1CCC(=O)C2OC12)C(=O)O (centres undefined)
 | 25 µM | NC(CO)C(O)C(O)C(O)COP(=O)(O)O (centres undefined)
23 µM |  | O=C(O)C1CCC=N1 (racemic)

Reference: ChEMBL document CHEMBL1128876, “Nitrogen transfer in E. coli glucosamine-6P synthase. Investigations using substrate and bisubstrate analogs” (Bioorg Med Chem Lett, 1995)
